The source made the active and inactive calls. The rule behind the calls is not given here.
What was measured:
Cryptococcus neoformans [1] = assay: Induction of cell cycle arrest in Cryptococcus neoformans H99 assessed as accumulation at S phase at 1 to 2 ug/ml after 24 hrs by propidium iodide-staining based FACS analysis (reference value: 51.64%); assay type: functional, var grubii H99
Cryptococcus neoformans [2] = assay: Induction of up-regulation of Mps1 gene expression in Cryptococcus neoformans H99 at 2 ug/ml after 24 hrs by RNA-seq analysis based KEGG pathway enrichment analysis; assay type: functional, organism-based; conditions: var grubii H99
Cryptococcus neoformans [3] = assay: Induction of up-regulation of Mob1 gene expression in Cryptococcus neoformans H99 at 2 ug/ml after 24 hrs by RNA-seq analysis based KEGG pathway enrichment analysis; assay type: functional, organism-based; conditions: var grubii H99
HUVEC = assay: Cytotoxicity against human HUVEC; assay type: cell-based
Candida albicans [4] = assay: Antifungal activity against Candida albicans 7781 after 48 hrs by spectrophotometery; assay type: functional; conditions: Candida albicans, 7781, 48 h
Cryptococcus neoformans [5] = assay: Antifungal activity against Cryptococcus neoformans H99 assessed as up-regulation of Cdc25C expression after 24 hrs by Western blot analysis; assay type: functional, organism-based; conditions: var grubii H99
Cryptococcus neoformans [6] = assay: Antifungal activity against Cryptococcus neoformans H99 infected in ICR mouse assessed as reduction in brain fungal load at 10 mg/kg, ip administered once daily; assay type: functional, organism-based; conditions: var grubii H99
Cryptococcus neoformans [7] = assay: Antifungal activity against Cryptococcus neoformans H99 after 72 hrs by growth curve assay; assay type: functional; conditions: var grubii H99 
Aspergillus fumigatus = assay: Antifungal activity against Aspergillus fumigatus 7544 after 48 hrs by spectrophotometery; assay type: functional; conditions: Aspergillus fumigatus, 7544, 48 h
Cryptococcus neoformans [8] = assay: Antifungal activity against Cryptococcus neoformans H99 assessed as up-regulation of cyclin B1 expression after 24 hrs by Western blot analysis; assay type: functional, organism-based; conditions: var grubii H99
Cryptococcus neoformans [9] = assay: Induction of up-regulation of MCM gene expression in Cryptococcus neoformans H99 at 2 ug/ml after 24 hrs by RNA-seq analysis based KEGG pathway enrichment analysis; assay type: functional, organism-based; conditions: var grubii H99
Cryptococcus neoformans [10] = assay: Antifungal activity against Cryptococcus neoformans H99 assessed as up-regulation of CDK1 expression after 24 hrs by Western blot analysis; assay type: functional, organism-based; conditions: var grubii H99
[11] = Solubility of the compound; assay type: physicochemical
Cryptococcus neoformans [12] = assay: Induction of cell cycle arrest in Cryptococcus neoformans H99 assessed as accumulation at G1 phase at 1 to 2 ug/ml after 24 hrs by propidium iodide-staining based FACS analysis (reference value: 44.50%); assay type: functional, var grubii H99
Cryptococcus neoformans [13] = assay: Induction of up-regulation of Hs17 gene expression in Cryptococcus neoformans H99 at 2 ug/ml after 24 hrs by RNA-seq analysis based KEGG pathway enrichment analysis; assay type: functional, organism-based; conditions: var grubii H99
[14] = Half life in ICR mouse liver microsomes at 1 uM measured up to 45 mins in presence of NADPH by LC-MS/MS analysis; assay type: ADME, Microsome
Candida albicans [15] = assay: Antifungal activity against Candida albicans 0304103 after 48 hrs by spectrophotometery; assay type: functional; conditions: Candida albicans, 0304103, 48 h
Cryptococcus neoformans [16] = assay: Antifungal activity against Cryptococcus neoformans ATCC 34877 after 72 hrs by spectrophotometery; assay type: functional; conditions: ATCC 34877, 72 h
Cryptococcus neoformans [17] = assay: Inhibition of urease production in Cryptococcus neoformans H99 at 10 ug/ml; assay type: functional, organism-based; conditions: var grubii H99
Cryptococcus gattii = assay: Antifungal activity against Cryptococcus gattii ATCC 14116 after 72 hrs by spectrophotometery; conditions: ATCC 14116, 72 h
Nannizzia gypsea = assay: Antifungal activity against Microsporum gypseum MZC after 48 hrs by spectrophotometery; assay type: functional
Trichophyton rubrum = assay: Antifungal activity against Trichophyton rubrum TIA after 48 hrs by spectrophotometery; assay type: functional
Cryptococcus neoformans [18] = assay: Antifungal activity against Cryptococcus neoformans H99 assessed as cell wall collapse at 4 ug/ml after 24 hrs by TEM analysis; assay type: functional, organism-based; conditions: var grubii H99
Cryptococcus neoformans [19] = assay: Antifungal activity against Cryptococcus neoformans H99 after 48 hrs by growth curve assay; assay type: functional
Cryptococcus neoformans [20] = assay: Induction of up-regulation of PNAC gene expression in Cryptococcus neoformans H99 at 2 ug/ml after 24 hrs by RNA-seq analysis based KEGG pathway enrichment analysis; assay type: functional, organism-based; conditions: var grubii H99
Cryptococcus neoformans [21] = assay: Induction of up-regulation of Ycg1 gene expression in Cryptococcus neoformans H99 at 2 ug/ml after 24 hrs by RNA-seq analysis based KEGG pathway enrichment analysis; assay type: functional, organism-based; conditions: var grubii H99
Cryptococcus neoformans [22] = assay: Antifungal activity against Cryptococcus neoformans H99 assessed as nuclear pyknosis at 4 ug/ml after 24 hrs by TEM analysis; assay type: functional, organism-based; conditions: var grubii H99
Cryptococcus neoformans [23] = assay: Antifungal activity against Cryptococcus neoformans H99 assessed as formation of abnormally shaped cells at 4 ug/ml after 24 hrs by TEM analysis; assay type: functional, organism-based; conditions: var grubii H99
[24] = Effective permeability of the compound after 12 hrs by PAMPA; assay type: ADME; conditions: read-out: Peff
Cryptococcus neoformans [25] = assay: Induction of up-regulation of PLK1 gene expression in Cryptococcus neoformans H99 at 2 ug/ml after 24 hrs by RNA-seq analysis based KEGG pathway enrichment analysis; assay type: functional, organism-based; conditions: var grubii H99
Cryptococcus neoformans [26] = assay: Antifungal activity against Cryptococcus neoformans H99 assessed as induction of gamma-H2AX foci at 2 ug/ml after 48 hrs by Hoechst-33342 staining based fluorescence microscopy; assay type: functional, organism-based; conditions: var grubii H99
Cryptococcus neoformans [27] = assay: Induction of up-regulation of PCNA gene expression in Cryptococcus neoformans H99 at 2 ug/ml after 24 hrs by RNA-seq analysis based KEGG pathway enrichment analysis; assay type: functional, organism-based; conditions: var grubii H99
Cryptococcus neoformans [28] = assay: Antibiofilm activity against Cryptococcus neoformans H99 at 16 ug/ml after 90 mins by XTT assay; assay type: functional, organism-based; conditions: var grubii H99
Cryptococcus neoformans [29] = assay: Antibiofilm activity against Cryptococcus neoformans H99 assessed as inhibition of cellular surface hydrophobicity at 5 ug/ml incubated for 24 hrs by water-hydrocarbon two-phase assay; assay type: functional, organism-based; conditions: var grubii H99
Cryptococcus neoformans [30] = assay: Induction of up-regulation of DNA polymerase alpha2 gene expression in Cryptococcus neoformans H99 at 2 ug/ml after 24 hrs by RNA-seq analysis based KEGG pathway enrichment analysis; assay type: functional, organism-based; conditions: var grubii H99
Cryptococcus neoformans [31] = assay: Antifungal activity against Cryptococcus neoformans H99 infected in ICR mouse assessed as reduction in brain fungal load at 20 mg/kg, po administered daily for 5 days; assay type: functional, organism-based; conditions: var grubii H99
[32] = Clearance in ICR mouse liver microsomes at 1 uM measured up to 45 mins in presence of NADPH by LC-MS/MS analysis; assay type: ADME, Microsome; conditions: 0.75 h
Nakaseomyces glabratus = assay: Antifungal activity against Candida glabrata 8535 after 48 hrs by spectrophotometery; assay type: functional; conditions: Nakaseomyces glabratus, 8535, 48 h
Cryptococcus neoformans [33] = assay: Inhibition of melanin production in Cryptococcus neoformans H99 at 2.5 ug/ml; assay type: functional, organism-based; conditions: var grubii H99
Candida parapsilosis = assay: Antifungal activity against Candida parapsilosis 5008 after 48 hrs by spectrophotometery; assay type: functional; conditions: Lodderomyces parapsilosis, 5008, 48 h
Cryptococcus neoformans [34] = assay: Induction of up-regulation of APC/C gene expression in Cryptococcus neoformans H99 at 2 ug/ml after 24 hrs by RNA-seq analysis based KEGG pathway enrichment analysis; assay type: functional, organism-based; conditions: var grubii H99
Cryptococcus neoformans [35] = assay: Induction of up-regulation of Lig1 gene expression in Cryptococcus neoformans H99 at 2 ug/ml after 24 hrs by RNA-seq analysis based KEGG pathway enrichment analysis; assay type: functional, organism-based; conditions: var grubii H99
[36] = Protein binding in mouse plasma; assay type: ADME, cell-free
Cryptococcus neoformans [37] = assay: Induction of cell cycle arrest in Cryptococcus neoformans H99 assessed as accumulation at G2 phase at 1 to 2 ug/ml after 24 hrs by propidium iodide-staining based FACS analysis (reference value: 3.86%); assay type: functional, var grubii H99
Cryptococcus neoformans [38] = assay: Antifungal activity against Cryptococcus neoformans H99 assessed as inhibition of microbial growth at 8 ug/ml after 12 to 48 hrs by growth curve assay; assay type: functional; conditions: var grubii H99, read-out: GI
Cryptococcus neoformans [39] = assay: Induction of up-regulation of ORC gene expression in Cryptococcus neoformans H99 at 2 ug/ml after 24 hrs by RNA-seq analysis based KEGG pathway enrichment analysis; assay type: functional, organism-based; conditions: var grubii H99

Clc1ccc(OCCCn2c3c(c4cc(Cl)ccc42)CCNC3)cc1.O=C(O)C(F)(F)F
Activity (Cryptococcus neoformans [1]): 53.21%
Activity (Cryptococcus neoformans [2]): Active
Activity (Cryptococcus neoformans [3]): Active
Activity (HUVEC): Non-Toxic
MIC80 (Candida albicans [4]): 4 µg/mL
Activity (Cryptococcus neoformans [5]): Dose-dependent effect
Activity (Cryptococcus neoformans [6]): Active
MIC80 (Cryptococcus neoformans [7]): 0.5 µg/mL
MIC80 (Aspergillus fumigatus): 16 µg/mL
Activity (Cryptococcus neoformans [8]): Dose-dependent effect
Activity (Cryptococcus neoformans [9]): Active
Activity (Cryptococcus neoformans [10]): Dose-dependent effect
solubility [11]: 54.6 µg/mL
Activity (Cryptococcus neoformans [12]): 36.45%
Activity (Cryptococcus neoformans [13]): Active
half-life at 1 µM [14]: 1.17 h
MIC80 (Candida albicans [15]): 2 µg/mL
MIC80 (Cryptococcus neoformans [16]): 0.5 µg/mL
inhibition (Cryptococcus neoformans [17]): inactive
MIC80 (Cryptococcus gattii): 1 µg/mL
MIC80 (Nannizzia gypsea): 8 µg/mL
MIC80 (Trichophyton rubrum): 4 µg/mL
Activity (Cryptococcus neoformans [18]): Active
Activity (Cryptococcus neoformans [19]; var grubii H99): Dose-dependent effect
MIC80 (Cryptococcus neoformans [19]; var grubii H99 ): 0.25 µg/mL
Activity (Cryptococcus neoformans [20]): Active
Activity (Cryptococcus neoformans [21]): Active
Activity (Cryptococcus neoformans [22]): Active
Activity (Cryptococcus neoformans [23]): Active
Papp at 12 h [24]: 1.8 ×10⁻⁶ cm/s
Activity (Cryptococcus neoformans [25]): Active
Activity (Cryptococcus neoformans [26]): Active
Activity (Cryptococcus neoformans [27]): Active
Activity (Cryptococcus neoformans [28]): Active
Activity (Cryptococcus neoformans [29]): Active
Activity (Cryptococcus neoformans [30]): Active
Activity (Cryptococcus neoformans [31]): Active
scaled CLint [32]: 78 mL/min/kg
MIC80 (Nakaseomyces glabratus): 1 µg/mL
inhibition (Cryptococcus neoformans [33]): Active
MIC80 (Candida parapsilosis): 2 µg/mL
Activity (Cryptococcus neoformans [34]): Active
Activity (Cryptococcus neoformans [35]): Active
PPB [36]: Active
Activity (Cryptococcus neoformans [37]): 10.34%
inhibition of growth at 8 µg/mL (Cryptococcus neoformans [38]): 100%
Activity (Cryptococcus neoformans [39]): Active
